# Data taken from PubChem BioAssay AID330 (DTP/NCI, 2004).
# “And” between values parts separate entries of the source, which are not always exact repeats. Equal entries are not always repeated. Inconclusive results and toxic doses are left out.
# Test system: P388 leukemia ip, CD2F1 mice, survival T/C
# Test: NCI In Vivo Anticancer Drug Screen. Data for tumor model P388 Leukemia (intraperitoneal) in CD2F1 (CDF1) mice
# Conditions: endpoint: median survival time, higher = longer survival
# Summary of the method: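 Mice carrying the transplanted tumor received test compound or vehicle. Survival was recorded in each group, and the value is the treated-group measurement divided by that of the vehicle-treated control group.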
smiles,measurement,setting,value
CC(=O)OC1CC2C(C)(C)OC3CC(=O)OCC32C2CCC3(C)C(=CCC3c3ccoc3)C12C (stereo not given),T/C,"dose: 0.5 mg/kg/injection, schedule: Q01DX005 (ip), vehicle: saline + alcohol",108 % of control
same,T/C,"dose: 1.0 mg/kg/injection, schedule: Q01DX005 (ip), vehicle: saline + alcohol",98 % of control
same,T/C,"dose: 2.0 mg/kg/injection, schedule: Q01DX005 (ip), vehicle: saline + alcohol",106 % of control
same,T/C,"dose: 4.0 mg/kg/injection, schedule: Q01DX005 (ip), vehicle: saline + alcohol",111 % of control
same,T/C,"dose: 8.0 mg/kg/injection, schedule: Q01DX005 (ip), vehicle: saline + alcohol",108 % of control
C1CCCNCCNCCNCC1,T/C,"dose: 60.0 mg/kg/injection, schedule: Q01DX005 (ip), vehicle: saline with Tween-80",98 % of control
same,T/C,"dose: 120.0 mg/kg/injection, schedule: Q01DX005 (ip), vehicle: saline with Tween-80",100 % of control
same,T/C,"dose: 240.0 mg/kg/injection, schedule: Q01DX005 (ip), vehicle: saline with Tween-80",92 % of control
CCc1c2cc3c(cc2cc2c4cc5c(cc4cc[n+]12)OCO5)OCO3 (tested in a mixture with another compound),T/C,"dose: 0.5 mg/kg/injection, schedule: Q01DX009 (ip), vehicle: Klucel (hydroxypropylcellulose) (HPC)",117 % of control
same,T/C,"dose: 1.0 mg/kg/injection, schedule: Q01DX009 (ip), vehicle: Klucel (hydroxypropylcellulose) (HPC)",121 % of control
same,T/C,"dose: 5.0 mg/kg/injection, schedule: Q01DX009 (ip), vehicle: Klucel (hydroxypropylcellulose) (HPC)",153 % of control and 174 % of control
CCCC(=O)Oc1ccc[nH]c1=O,T/C,"dose: 3.13 mg/kg/injection, schedule: Q01DX009 (ip), vehicle: distilled water + Tween-80",100 % of control
same,T/C,"dose: 3.13 mg/kg/injection, schedule: Q01DX009 (ip), vehicle: water",92 % of control
same,T/C,"dose: 6.25 mg/kg/injection, schedule: Q01DX009 (ip), vehicle: distilled water + Tween-80",107 % of control
same,T/C,"dose: 6.25 mg/kg/injection, schedule: Q01DX009 (ip), vehicle: water",92 % of control
same,T/C,"dose: 12.5 mg/kg/injection, schedule: Q01DX009 (ip), vehicle: distilled water + Tween-80",106 % of control
same,T/C,"dose: 12.5 mg/kg/injection, schedule: Q01DX009 (ip), vehicle: water",92 % of control
same,T/C,"dose: 25.0 mg/kg/injection, schedule: Q01DX009 (ip), vehicle: distilled water + Tween-80",100 % of control
same,T/C,"dose: 25.0 mg/kg/injection, schedule: Q01DX009 (ip), vehicle: water",99 % of control and 107 % of control
same,T/C,"dose: 50.0 mg/kg/injection, schedule: Q01DX009 (ip), vehicle: distilled water + Tween-80",109 % of control
same,T/C,"dose: 50.0 mg/kg/injection, schedule: Q01DX009 (ip), vehicle: water",114 % of control
same,T/C,"dose: 100.0 mg/kg/injection, schedule: Q01DX009 (ip), vehicle: water",114 % of control
same,T/C,"dose: 200.0 mg/kg/injection, schedule: Q01DX009 (ip), vehicle: water",115 % of control
C=CC[n+]1ccc(-c2cc[n+](CC=C)cc2)cc1,T/C,"dose: 6.25 mg/kg/injection, schedule: Q01DX009 (ip), vehicle: saline",115 % of control
same,T/C,"dose: 12.5 mg/kg/injection, schedule: Q01DX009 (ip), vehicle: saline",112 % of control and 117 % of control
CC1=C(C)C(=O)c2nn(C)nc2C1=O,T/C,"dose: 6.25 mg/kg/injection, schedule: Q01DX001 (ip), vehicle: saline",100 % of control
same,T/C,"dose: 12.5 mg/kg/injection, schedule: Q01DX001 (ip), vehicle: saline",98 % of control
same,T/C,"dose: 25.0 mg/kg/injection, schedule: Q01DX001 (ip), vehicle: saline",99 % of control
CN(C)CCCOC1=Nc2ccccc2O/C1=C/c1ccccc1,T/C,"dose: 12.5 mg/kg/injection, schedule: Q04DX003 (ip), vehicle: saline",98 % of control
same,T/C,"dose: 25.0 mg/kg/injection, schedule: Q04DX003 (ip), vehicle: saline",94 % of control
same,T/C,"dose: 50.0 mg/kg/injection, schedule: Q04DX003 (ip), vehicle: saline",97 % of control
same,T/C,"dose: 100.0 mg/kg/injection, schedule: Q04DX003 (ip), vehicle: saline",97 % of control
CP1(=O)CCC23CCCCC21O3 (stereo not given),T/C,"dose: 50.0 mg/kg/injection, schedule: Q01DX009 (ip), vehicle: saline",104 % of control
same,T/C,"dose: 100.0 mg/kg/injection, schedule: Q01DX009 (ip), vehicle: saline",111 % of control
same,T/C,"dose: 200.0 mg/kg/injection, schedule: Q01DX009 (ip), vehicle: saline",95 % of control
Cc1nc2sccn2c1C(N)=O,T/C,"dose: 60.0 mg/kg/injection, schedule: Q01DX005 (ip), vehicle: Klucel (hydroxypropylcellulose) (HPC)",94 % of control
same,T/C,"dose: 100.0 mg/kg/injection, schedule: Q01DX001 (ip), vehicle: saline with Tween-80",103 % of control
same,T/C,"dose: 120.0 mg/kg/injection, schedule: Q01DX005 (ip), vehicle: Klucel (hydroxypropylcellulose) (HPC)",97 % of control
same,T/C,"dose: 200.0 mg/kg/injection, schedule: Q01DX001 (ip), vehicle: saline with Tween-80",114 % of control
same,T/C,"dose: 400.0 mg/kg/injection, schedule: Q01DX001 (ip), vehicle: saline with Tween-80",103 % of control
